The source made the active and inactive calls.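 How the source made its calls: active means mean IC50 for reducing PEG3 promoter reporter signal at or below a set limit, with IC50 above the limit in both counter screens; inactive means the rest, including counter screen hits.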

What all share (experiment): Peg3 promoter luciferase inhibitors, potency, dose response, cell-based, HeLa, CREF/GAPDH counter-screen panel (AID 624167)
On the technique in general: The purpose of a counterscreen is to sort out artefacts and off-target activity.

Test [1] relates to PEG-3. To be noted: HeLa PEG-Prom luciferase reporter, overnight, CREF/GAPDH counter-screens. A general note: A reporter such as luciferase makes a cellular process visible.
For test [2], the target named is PEG-3 (UniProt Q6IN02). Conditions: HeLa PEG-Prom luciferase reporter, overnight, CREF/GAPDH counter-screens, mean of runs.
PEG-3 (UniProt Q6IN02), sequence (Q6IN02 whole entry, looked up): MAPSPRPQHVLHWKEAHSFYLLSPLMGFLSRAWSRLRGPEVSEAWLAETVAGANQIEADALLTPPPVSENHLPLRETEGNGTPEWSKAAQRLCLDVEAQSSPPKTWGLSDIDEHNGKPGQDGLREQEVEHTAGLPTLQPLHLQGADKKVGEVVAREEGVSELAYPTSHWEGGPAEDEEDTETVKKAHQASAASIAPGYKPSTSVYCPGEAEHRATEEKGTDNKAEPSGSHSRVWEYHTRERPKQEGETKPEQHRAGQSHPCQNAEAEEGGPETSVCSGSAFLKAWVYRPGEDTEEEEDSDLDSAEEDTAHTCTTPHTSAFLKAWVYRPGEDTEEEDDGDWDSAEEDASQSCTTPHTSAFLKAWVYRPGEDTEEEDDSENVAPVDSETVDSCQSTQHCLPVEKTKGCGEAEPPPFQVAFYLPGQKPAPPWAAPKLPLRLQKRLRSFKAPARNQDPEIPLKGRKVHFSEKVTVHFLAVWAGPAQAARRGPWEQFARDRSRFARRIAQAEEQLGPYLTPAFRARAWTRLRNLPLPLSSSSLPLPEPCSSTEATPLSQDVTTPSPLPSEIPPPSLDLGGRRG
Another test has as its system Rat fibroblasts (CREF). To be noted: CREF/GAPDH counter-screens.
Setting [3] is: run 1, dose range 1, individual replicate IC50 per panel.
[4] abbreviates: run 2, dose range 1, individual replicate IC50 per panel.

For orientation: IC50 means the point on the concentration scale where inhibition reaches its midpoint. As for `O=C(/C=C/Nc1ccccc1Br)c1ccccn1`, the IC50 in the test with PEG-3 [1] (setting [3]) is 895 nM; in the test with PEG-3 [1] (setting [4]), 1310 nM; at PEG-3 [2], 1100 nM; with Rat fibroblasts (CREF) (mean of runs) it was 506 nM; with Rat fibroblasts (CREF) (setting [3]), 414 nM; in the test on Rat fibroblasts (CREF) (setting [4]), 599 nM.
Consider `Cc1cccc(CS(=O)(=O)c2ncc(Cl)c(C(=O)Nc3ccc(F)cc3)n2)c1`, for which the IC50 was 6010 nM with PEG-3 [1] (setting [3]); 3440 nM in the test on PEG-3 [1] (setting [4]); 4730 nM on PEG-3 [2]; 2020 nM in the test with Rat fibroblasts (CREF) (mean of runs); over 80000 nM in the test on Rat fibroblasts (CREF) (setting [3]); 2020 nM with Rat fibroblasts (CREF) (setting [4]).
Turning to `Cc1ccc(-c2cn3cc(C)ccc3n2)cc1`, the half-maximal inhibitory concentration (IC50) with PEG-3 [1] (setting [3]) was 729 nM; with PEG-3 [1] (setting [4]), 715 nM; on PEG-3 [2] it was 722 nM; with Rat fibroblasts (CREF) (mean of runs), 1280 nM; in the test with Rat fibroblasts (CREF) (setting [3]), 1010 nM; in the test on Rat fibroblasts (CREF) (setting [4]) it was 1540 nM.
In the case of `CCN(CCCl)c1cc(CN(C)C)cc(NC(=O)c2ccc(C(=O)Nc3cc(CN(C)C)cc(N(CC)CCCl)c3)cc2)c1`, the IC50 in the test on PEG-3 [1] (setting [3]) is 1600 nM; in the test with PEG-3 [1] (setting [4]), 642 nM; on PEG-3 [2], 1120 nM; in the test on Rat fibroblasts (CREF) (mean of runs) it was 7530 nM; with Rat fibroblasts (CREF) (setting [3]) it was 14300 nM; in the test with Rat fibroblasts (CREF) (setting [4]) it was 800 nM.
Take `O=C(/C=C/c1ccccc1)Nc1cccc(C(=O)O)c1`: the IC50 was 1790 nM with PEG-3 [1] (setting [3]); 2640 nM in the test on PEG-3 [1] (setting [4]); 2220 nM on PEG-3 [2]; 5310 nM with Rat fibroblasts (CREF) (mean of runs); 4020 nM with Rat fibroblasts (CREF) (setting [3]); 6600 nM in the test with Rat fibroblasts (CREF) (setting [4]).
For `COCCn1c(C)cc(C(=O)CSc2nnc(C)s2)c1C`, the IC50 with PEG-3 [1] (setting [3]) was 5440 nM; in the test with PEG-3 [1] (setting [4]), 13400 nM; on PEG-3 [2] it was 9400 nM; in the test with Rat fibroblasts (CREF) (mean of runs) it was 8780 nM; in the test on Rat fibroblasts (CREF) (setting [3]) it was 6790 nM; with Rat fibroblasts (CREF) (setting [4]), 10800 nM.
With `Cc1ccc(C(=O)O/N=C(\N)c2ccccn2)cc1`, the IC50 is 10300 nM in the test with PEG-3 [1] (setting [3]); 2960 nM in the test on PEG-3 [1] (setting [4]); 6630 nM at PEG-3 [2]; 1570 nM in the test on Rat fibroblasts (CREF) (mean of runs); 1630 nM with Rat fibroblasts (CREF) (setting [3]); 1500 nM in the test on Rat fibroblasts (CREF) (setting [4]).
For the molecule `Cc1ccc2nc(-c3ccc4c(c3)OCCO4)cn2c1`, the IC50 is 840 nM in the test with PEG-3 [1] (setting [3]); 409 nM in the test with PEG-3 [1] (setting [4]); 624 nM on PEG-3 [2]; 731 nM in the test on Rat fibroblasts (CREF) (mean of runs); 691 nM with Rat fibroblasts (CREF) (setting [3]); 771 nM in the test on Rat fibroblasts (CREF) (setting [4]).
In the case of `CN(C)c1ccc(Nc2nc(N)c3ccccc3n2)cc1`, the IC50 was 2510 nM with PEG-3 [1] (setting [3]); 4820 nM with PEG-3 [1] (setting [4]); 3660 nM on PEG-3 [2]; 995 nM in the test with Rat fibroblasts (CREF) (mean of runs); 869 nM in the test with Rat fibroblasts (CREF) (setting [3]); 1120 nM in the test with Rat fibroblasts (CREF) (setting [4]).
`Cc1ccc(C(=O)Nc2nc3ccccc3[nH]2)cc1`: the IC50 in the test with PEG-3 [1] (setting [3]) was 2020 nM; in the test with PEG-3 [1] (setting [4]), 4710 nM; at PEG-3 [2] it was 3370 nM; in the test with Rat fibroblasts (CREF) (mean of runs) it was 521 nM; in the test with Rat fibroblasts (CREF) (setting [3]) it was 523 nM; in the test on Rat fibroblasts (CREF) (setting [4]) it was 519 nM.
On to `CC1CCN(c2ccc(-c3cccc(NC(=O)C(F)(F)F)c3)nn2)CC1`, for which the IC50 with PEG-3 [1] (setting [3]) was 1840 nM; in the test on PEG-3 [1] (setting [4]), 2370 nM; at PEG-3 [2], 2110 nM; in the test with Rat fibroblasts (CREF) (mean of runs), 853 nM; in the test on Rat fibroblasts (CREF) (setting [3]), 869 nM; with Rat fibroblasts (CREF) (setting [4]), 837 nM.
`O=C(CCl)Nc1ccccc1Sc1ccc(Cl)cc1`: the IC50 is 13000 nM in the test with PEG-3 [1] (setting [3]); 7060 nM in the test with PEG-3 [1] (setting [4]); 10100 nM on PEG-3 [2]; 8110 nM in the test with Rat fibroblasts (CREF) (mean of runs); 8040 nM in the test on Rat fibroblasts (CREF) (setting [3]); 8180 nM with Rat fibroblasts (CREF) (setting [4]).
In the case of `C[C@@H]1C[C@@H]([C@H](O)CC2CC(=O)NC(=O)C2)C(=O)[C@@H](C)C1`, the IC50 is 1640 nM with PEG-3 [1] (setting [3]); 373 nM in the test on PEG-3 [1] (setting [4]); 1010 nM on PEG-3 [2]; 8140 nM in the test on Rat fibroblasts (CREF) (mean of runs); 1850 nM with Rat fibroblasts (CREF) (setting [3]); 14400 nM in the test with Rat fibroblasts (CREF) (setting [4]).
Regarding `Brc1ccc(N/N=C(/N=Nc2nn[nH]n2)c2ccccc2)cc1`, the IC50 is 760 nM in the test on PEG-3 [1] (setting [3]); 1240 nM with PEG-3 [1] (setting [4]); 1000 nM on PEG-3 [2]; 10200 nM in the test on Rat fibroblasts (CREF) (mean of runs); 10000 nM in the test with Rat fibroblasts (CREF) (setting [3]); 10400 nM in the test with Rat fibroblasts (CREF) (setting [4]).
As to `Cc1ccc(-c2nc(-c3ccccn3)no2)cc1`, the IC50 in the test with PEG-3 [1] (setting [3]) was 479 nM; in the test on PEG-3 [1] (setting [4]) it was 663 nM; at PEG-3 [2] it was 571 nM; in the test with Rat fibroblasts (CREF) (mean of runs) it was 480 nM; with Rat fibroblasts (CREF) (setting [3]) it was 288 nM; in the test with Rat fibroblasts (CREF) (setting [4]), 672 nM.
As for `O=C(Nc1nc2cc3c(cc2s1)OCCO3)C1=COCCO1`, the IC50 with PEG-3 [1] (setting [3]) is 431 nM; in the test with PEG-3 [1] (setting [4]), 622 nM; on PEG-3 [2] it was 526 nM; with Rat fibroblasts (CREF) (mean of runs) it was 924 nM; in the test on Rat fibroblasts (CREF) (setting [3]), 575 nM; with Rat fibroblasts (CREF) (setting [4]), 1270 nM.
Take `CCCS(=O)(=O)c1cnc(C2COc3ccccc3O2)nc1N` (stereo not given): the IC50 with PEG-3 [1] (setting [3]) was 2520 nM; in the test with PEG-3 [1] (setting [4]) it was 5040 nM; on PEG-3 [2], 3780 nM; with Rat fibroblasts (CREF) (mean of runs), 10800 nM; with Rat fibroblasts (CREF) (setting [3]) it was 9070 nM; in the test with Rat fibroblasts (CREF) (setting [4]), 12500 nM.
Regarding `CN(C)c1ccc(/C=C/c2ccc3ccccc3n2)cc1`, the IC50 in the test on PEG-3 [1] (setting [3]) is 2090 nM; with PEG-3 [1] (setting [4]), 4480 nM; on PEG-3 [2], 3290 nM; in the test on Rat fibroblasts (CREF) (mean of runs) it was 2690 nM; with Rat fibroblasts (CREF) (setting [3]), 2150 nM; with Rat fibroblasts (CREF) (setting [4]) it was 3220 nM.
As to `COc1ccc(S(=O)(=O)/N=C2\C=C(Nc3ccc(O)cc3)C(=O)c3ccccc32)cc1`, the IC50 in the test on PEG-3 [1] (setting [3]) was 2500 nM; in the test with PEG-3 [1] (setting [4]), 2650 nM; at PEG-3 [2], 2580 nM; in the test on Rat fibroblasts (CREF) (mean of runs), 1630 nM; in the test with Rat fibroblasts (CREF) (setting [3]) it was 1380 nM; in the test with Rat fibroblasts (CREF) (setting [4]), 1880 nM.
Regarding `CCN(CCO)c1ccc(N=Nc2cc(C)[nH]n2)cc1`, the IC50 in the test on PEG-3 [1] (setting [3]) was 3000 nM; in the test with PEG-3 [1] (setting [4]) it was 6220 nM; on PEG-3 [2], 4610 nM; in the test with Rat fibroblasts (CREF) (mean of runs), 2240 nM; in the test on Rat fibroblasts (CREF) (setting [3]) it was 1520 nM; with Rat fibroblasts (CREF) (setting [4]), 2970 nM.
Regarding `C=CCn1c(C)cc(C(=O)CN2C(=O)c3ccccc3S2(=O)=O)c1C`, the IC50 in the test on PEG-3 [1] (setting [3]) was 795 nM; in the test on PEG-3 [1] (setting [4]), 306 nM; on PEG-3 [2], 550 nM; with Rat fibroblasts (CREF) (mean of runs) it was 2710 nM; in the test on Rat fibroblasts (CREF) (setting [3]), 1680 nM; in the test on Rat fibroblasts (CREF) (setting [4]), 3730 nM.
`CN1CCN(c2ccc(-c3ccc4ccccc4n3)cc2)CC1`: the IC50 was 7840 nM in the test on PEG-3 [1] (setting [3]); over 100000 nM in the test with PEG-3 [1] (setting [4]); 2360 nM in the test with Rat fibroblasts (CREF) (mean of runs); 2930 nM in the test with Rat fibroblasts (CREF) (setting [3]); 1790 nM in the test on Rat fibroblasts (CREF) (setting [4]). Moreover, the IC50 result at PEG-3 [2] is “inactive”.
As for `CCCn1c(C)cc(C(=O)CN2C(=O)c3ccccc3S2(=O)=O)c1C`, the half-maximal inhibitory concentration (IC50) is 3240 nM in the test on PEG-3 [1] (setting [3]); 4830 nM in the test on PEG-3 [1] (setting [4]); 4030 nM at PEG-3 [2]; 6190 nM with Rat fibroblasts (CREF) (mean of runs); 6320 nM with Rat fibroblasts (CREF) (setting [3]); 6060 nM in the test with Rat fibroblasts (CREF) (setting [4]).
`CC(C)(C)C(=O)Nc1ccc(NC(=O)c2ccco2)nc1`: the IC50 is 4900 nM with PEG-3 [1] (setting [3]); 246 nM in the test on PEG-3 [1] (setting [4]); 2580 nM at PEG-3 [2]; 435 nM in the test on Rat fibroblasts (CREF) (mean of runs); 224 nM with Rat fibroblasts (CREF) (setting [3]); 646 nM in the test on Rat fibroblasts (CREF) (setting [4]).
Regarding `O=C(CNCCC1=CCCCC1)Nc1ccc(N2CCCCCC2)cc1`, the IC50 was 10600 nM in the test on PEG-3 [1] (setting [3]); 9370 nM in the test on PEG-3 [1] (setting [4]); 9980 nM at PEG-3 [2]; 16600 nM in the test on Rat fibroblasts (CREF) (mean of runs); 16500 nM with Rat fibroblasts (CREF) (setting [3]); 16800 nM in the test with Rat fibroblasts (CREF) (setting [4]).

Source of the values: PubChem BioAssay AID624167 (Sanford-Burnham Center for Chemical Genomics, 2012).
